In one data set the test system is test plant species. Description: Post-emergent herbicidal activity test (greenhouse, foliar spray, visual growth reduction). It counts as in vivo. Particulars: post-emergence, 336 h, 140 g ai/ha. A digest of the protocol: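 Visual scoring 14 d after treatment (0 = no injury, 100 = complete control) against nontreated and solvent-blank plants gave percent growth reduction. Foliar application used a track sprayer delivering 187 L/ha to seedlings at first or second true leaf stage, grown at 23–29 °C day, ~15 h photoperiod.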

Setting [1] is: ECHCG: barnyardgrass (Echinochloa crus-galli), 14 days after application, read-out: Visual Growth Reduction (%) 14 Days After Application, ECHCG.
[2] abbreviates: IPOHE: ivy-leaf morning glory (Ipomoea hederacea), 14 days after application, read-out: Visual Growth Reduction (%) 14 Days After Application, IPOHE.
Where [3] appears, read: KCHSC: kochia (Bassia scoparia), 14 days after application, read-out: Visual Growth Reduction (%) 14 Days After Application, KCHSC.
Where [4] appears, read: ORYSA: rice (Oryza sativa), 14 days after application, read-out: Visual Growth Reduction (%) 14 Days After Application, ORYSA.
The mark [5] stands for this setting: SETFA: giant foxtail (Setaria faberi), 14 days after application, read-out: Visual Growth Reduction (%) 14 Days After Application, SETFA.
Where [6] appears, read: SORVU: grain sorghum (Sorghum vulgare), 14 days after application, read-out: Visual Growth Reduction (%) 14 Days After Application, SORVU.
Where [7] appears, read: STEME: common chickweed (Stellaria media), 14 days after application, read-out: Visual Growth Reduction (%) 14 Days After Application, STEME.
The mark [8] stands for this setting: TRZAS: wheat, spring (Triticum aestivum), 14 days after application, read-out: Visual Growth Reduction (%) 14 Days After Application, TRZAS.
[9] abbreviates: blackgrass (Alopecurus myosuroides), 14 Days After Application, read-out: Visual Growth Reduction (%) ALOMY.
Setting [10] is: canada thistle (Cirsium arvense), 14 Days After Application, read-out: Visual Growth Reduction (%) CIRAR.
Where [11] appears, read: crabgrass (Digitaria sanguinalis), 14 Days After Application, read-out: Visual Growth Reduction (%) DIGSA.
Setting [12] is: lambsquarters (Chenopodium album), 14 Days After Application, read-out: Visual Growth Reduction (%) CHEAL.
Where [13] appears, read: redroot pigweed (Amaranthus retroflexus), 14 Days After Application, read-out: Visual Growth Reduction (%) AMARE.
The mark [14] stands for this setting: wild oat (Avena fatua), 14 Days After Application, read-out: Visual Growth Reduction (%) AVEFA.
The mark [15] stands for this setting: yellow nutsedge (Cyperus esculentus), 14 Days After Application, read-out: Visual Growth Reduction (%) CYPES.

Usually melting point stands for the temperature of the solid-liquid transition.

Like-named read-outs stand apart in the source and are kept apart here.

In turn, `COC(=O)c1nc(-c2ccc(C(F)(F)F)nc2F)c(F)cc1Cl` [F354, methyl 5-chloro-2′,3-difluoro-6′-(trifluoromethyl)-[2,3′-bipyridine]-6-carboxylate] displayed a melting point of 84 to 86 °C. In addition, the pest or weed control at 140 g/ha with test plant species (setting [1]) is 75 to 84%. For the same molecule, the pest or weed control at 140 g/ha in the data set on test plant species (setting [2]) was 95 to 100%. In the data set on test plant species (setting [3]), the pest or weed control at 140 g/ha was in the range of 60 to 74%. Besides, the pest or weed control at 140 g/ha in the data set with test plant species (setting [4]) was 0 to 29%. Further, the pest or weed control at 140 g/ha with test plant species (setting [5]) was 75 to 84%. Also, the pest or weed control at 140 g/ha in the data set with test plant species (setting [6]) was in the range of 85 to 94%. Further, the pest or weed control at 140 g/ha with test plant species (setting [7]) was 0 to 29%. Besides, in the data set with test plant species (setting [8]), the pest or weed control at 140 g/ha was 60 to 74%. Moreover, the pest or weed control at 140 g/ha with test plant species (setting [9]) fell in the range of 0 to 29%. The pest or weed control at 140 g/ha in the data set on test plant species (setting [10]) was in the range of 75 to 84%. In the data set on test plant species (setting [11]), the pest or weed control at 140 g/ha was 85 to 94%. Moreover, the pest or weed control at 140 g/ha with test plant species (setting [12]) lay within 75 to 84%. In addition, the pest or weed control at 140 g/ha in the data set with test plant species (setting [13]) lay in the range of 60 to 74%. The pest or weed control at 140 g/ha in the data set on test plant species (setting [14]) is 30 to 44%. Further, the pest or weed control at 140 g/ha in the data set on test plant species (setting [15]) fell in the range of 0 to 29%.

`COC(=O)c1nc(-c2ccc(S(C)(=O)=O)cc2F)c(F)cc1Cl` [F379, Methyl 3-chloro-5-fluoro-6-(2-fluoro-4-(methylsulfonyl)phenyl)picolinate]: the melting point is 179 to 181 °C. In addition, the pest or weed control at 140 g/ha in the data set with test plant species (setting [1]) is 75 to 84%. Also, the pest or weed control at 140 g/ha in the data set with test plant species (setting [2]) was 95 to 100%. Also, the pest or weed control at 140 g/ha in the data set with test plant species (setting [3]) fell in the range of 85 to 94%. The pest or weed control at 140 g/ha in the data set with test plant species (setting [4]) lay in the range of 0 to 29%. The pest or weed control at 140 g/ha in the data set on test plant species (setting [5]) fell in the range of 75 to 84%. For the same molecule, the pest or weed control at 140 g/ha with test plant species (setting [6]) lay in the range of 75 to 84%. The pest or weed control at 140 g/ha in the data set on test plant species (setting [7]) was in the range of 0 to 29%. Further, the pest or weed control at 140 g/ha with test plant species (setting [8]) is 60 to 74%. The pest or weed control at 140 g/ha with test plant species (setting [9]) lay in the range of 0 to 29%. Besides, the pest or weed control at 140 g/ha in the data set with test plant species (setting [10]) lay within 0 to 29%. Further, in the data set on test plant species (setting [11]), the pest or weed control at 140 g/ha was 60 to 74%. Further, the pest or weed control at 140 g/ha with test plant species (setting [12]) lay within 60 to 74%. In addition, the pest or weed control at 140 g/ha in the data set with test plant species (setting [13]) fell in the range of 60 to 74%. The pest or weed control at 140 g/ha in the data set with test plant species (setting [14]) lay within 0 to 29%. The pest or weed control at 140 g/ha in the data set with test plant species (setting [15]) fell in the range of 0 to 29%.

The record behind these values is patent publication US20230017045A1, “PYRIDINE AND PYRIMIDINE CARBOXYLATE HERBICIDES AND METHODS OF USE THEREOF” (Dow AgroSciences LLC, priority 2017, published 2023).
